In brackets after ≈: the same amount, converted by molar mass.
Columns and labels:
Format in all cases: functional
Staphylococcus aureus [1] = test: Antibacterial activity against methicillin-resistant Staphylococcus aureus 305026 clinical isolate after 20 to 24 hrs by two-fold microdilution method
Staphylococcus aureus [2] = test: Antibacterial activity against methicillin-resistant Staphylococcus aureus ATCC 43300 after 20 to 24 hrs by two-fold microdilution method
[3] = system: Staphylococcus haemolyticus; test: Antibacterial activity against Staphylococcus haemolyticus CICC 10373 after 20 to 24 hrs by two-fold microdilution method
Staphylococcus aureus [4] = test: Antibacterial activity against methicillin-resistant Staphylococcus aureus 3250299 clinical isolate after 20 to 24 hrs by two-fold microdilution method
Staphylococcus aureus [5] = test: Antibacterial activity against methicillin-resistant Staphylococcus aureus 216054 clinical isolate after 20 to 24 hrs by two-fold microdilution method
Staphylococcus aureus [6] = test: Antibacterial activity against methicillin-resistant Staphylococcus aureus 122045 clinical isolate after 20 to 24 hrs by two-fold microdilution method
Staphylococcus aureus [7] = test: Antibacterial activity against methicillin-resistant Staphylococcus aureus 1111047-1 clinical isolate after 20 to 24 hrs by two-fold microdilution method
Staphylococcus aureus [8] = test: Antibacterial activity against […] Staphylococcus aureus ATCC 25923 after 20 to 24 hrs by two-fold microdilution method
Staphylococcus aureus [9] = test: Antibacterial activity against methicillin-resistant Staphylococcus aureus 12308 clinical isolate after 20 to 24 hrs by two-fold microdilution method
[10] = system: Staphylococcus epidermidis; test: Antibacterial activity against Staphylococcus epidermidis ATCC 12228 after 20 to 24 hrs by two-fold microdilution method
Staphylococcus aureus [11] = test: Antibacterial activity against methicillin-resistant Staphylococcus aureus 822030 clinical isolate after 20 to 24 hrs by two-fold microdilution method
Staphylococcus aureus [12] = test: Antibacterial activity against methicillin-resistant Staphylococcus aureus 110432 clinical isolate after 20 to 24 hrs by two-fold microdilution method
Staphylococcus aureus [13] = test: Antibacterial activity against methicillin-resistant Staphylococcus aureus 1024004-2 clinical isolate after 20 to 24 hrs by two-fold microdilution method
Staphylococcus aureus [14] = test: Antibacterial activity against methicillin-resistant Staphylococcus aureus 221014 clinical isolate after 20 to 24 hrs by two-fold microdilution method
Staphylococcus aureus [15] = test: Antibacterial activity against methicillin-resistant Staphylococcus aureus 125025 clinical isolate after 20 to 24 hrs by two-fold microdilution method
Staphylococcus aureus [16] = test: Antibacterial activity against methicillin-resistant Staphylococcus aureus 10844 clinical isolate after 20 to 24 hrs by two-fold microdilution method
Staphylococcus aureus [17] = test: Antibacterial activity against methicillin-resistant Staphylococcus aureus 1026211 clinical isolate after 20 to 24 hrs by two-fold microdilution method
Staphylococcus aureus [18] = test: Antibacterial activity against methicillin-resistant Staphylococcus aureus 103054 clinical isolate after 20 to 24 hrs by two-fold microdilution method
Staphylococcus aureus [19] = test: Antibacterial activity against methicillin-resistant Staphylococcus aureus 625032 clinical isolate after 20 to 24 hrs by two-fold microdilution method
Staphylococcus aureus [20] = test: Antibacterial activity against methicillin-resistant Staphylococcus aureus 1019240 clinical isolate after 20 to 24 hrs by two-fold microdilution method
Staphylococcus aureus [21] = test: Antibacterial activity against methicillin-resistant Staphylococcus aureus 122710-2 clinical isolate after 20 to 24 hrs by two-fold microdilution method
Staphylococcus aureus [22] = test: Antibacterial activity against methicillin-resistant Staphylococcus aureus 1107027 clinical isolate after 20 to 24 hrs by two-fold microdilution method
Staphylococcus aureus [23] = test: Antibacterial activity against methicillin-resistant Staphylococcus aureus 11703 clinical isolate after 20 to 24 hrs by two-fold microdilution method
Staphylococcus aureus [24] = test: Antibacterial activity against methicillin-resistant Staphylococcus aureus 121969 clinical isolate after 20 to 24 hrs by two-fold microdilution method
Staphylococcus aureus [25] = test: Antibacterial activity against methicillin-resistant Staphylococcus aureus GLH15 clinical isolate after 20 to 24 hrs by two-fold microdilution method
Staphylococcus aureus [26] = test: Antibacterial activity against methicillin-resistant Staphylococcus aureus 519028 clinical isolate after 20 to 24 hrs by two-fold microdilution method
Staphylococcus aureus [27] = test: Antibacterial activity against methicillin-resistant Staphylococcus aureus 1026021 clinical isolate after 20 to 24 hrs by two-fold microdilution method
Staphylococcus aureus [28] = test: Antibacterial activity against methicillin-resistant Staphylococcus aureus 110910-2 clinical isolate after 20 to 24 hrs by two-fold microdilution method
Staphylococcus aureus [29] = test: Antibacterial activity against methicillin-resistant Staphylococcus aureus 121026 clinical isolate after 20 to 24 hrs by two-fold microdilution method
Staphylococcus aureus [30] = test: Antibacterial activity against methicillin-resistant Staphylococcus aureus 504008 clinical isolate after 20 to 24 hrs by two-fold microdilution method
Staphylococcus aureus [31] = test: Antibacterial activity against methicillin-resistant Staphylococcus aureus 1029025 clinical isolate after 20 to 24 hrs by two-fold microdilution method
Staphylococcus aureus [32] = test: Antibacterial activity against methicillin-resistant Staphylococcus aureus 919205 clinical isolate after 20 to 24 hrs by two-fold microdilution method
Staphylococcus aureus [33] = test: Antibacterial activity against methicillin-resistant Staphylococcus aureus 921026 clinical isolate after 20 to 24 hrs by two-fold microdilution method
Staphylococcus aureus [34] = test: Antibacterial activity against methicillin-resistant Staphylococcus aureus 30116-1 clinical isolate after 20 to 24 hrs by two-fold microdilution method
Staphylococcus aureus [35] = test: Antibacterial activity against methicillin-resistant Staphylococcus aureus 831024 clinical isolate after 20 to 24 hrs by two-fold microdilution method
Staphylococcus aureus [36] = test: Antibacterial activity against methicillin-resistant Staphylococcus aureus 814039 clinical isolate after 20 to 24 hrs by two-fold microdilution method
Staphylococcus aureus [37] = test: Antibacterial activity against methicillin-resistant Staphylococcus aureus 1128040 clinical isolate after 20 to 24 hrs by two-fold microdilution method
Staphylococcus aureus [38] = test: Antibacterial activity against methicillin-resistant Staphylococcus aureus 11819 clinical isolate after 20 to 24 hrs by two-fold microdilution method
Staphylococcus aureus [39] = test: Antibacterial activity against methicillin-resistant Staphylococcus aureus 112047 clinical isolate after 20 to 24 hrs by two-fold microdilution method
Staphylococcus aureus [40] = test: Antibacterial activity against methicillin-resistant Staphylococcus aureus 1108204 clinical isolate after 20 to 24 hrs by two-fold microdilution method
Staphylococcus aureus [41] = test: Antibacterial activity against methicillin-resistant Staphylococcus aureus 1101016 clinical isolate after 20 to 24 hrs by two-fold microdilution method
Streptococcus pneumoniae = test: Antibacterial activity against Streptococcus pneumoniae ATCC 6305 after 20 to 24 hrs by two-fold microdilution method
Staphylococcus aureus [42] = test: Antibacterial activity against methicillin-resistant Staphylococcus aureus 118038 clinical isolate after 20 to 24 hrs by two-fold microdilution method
Staphylococcus aureus [43] = test: Antibacterial activity against methicillin-resistant Staphylococcus aureus 122820-2 clinical isolate after 20 to 24 hrs by two-fold microdilution method
Staphylococcus aureus [44] = test: Antibacterial activity against methicillin-resistant Staphylococcus aureus 614019 clinical isolate after 20 to 24 hrs by two-fold microdilution method
Staphylococcus aureus [45] = test: Antibacterial activity against methicillin-resistant Staphylococcus aureus 1023043 clinical isolate after 20 to 24 hrs by two-fold microdilution method
Staphylococcus aureus [46] = test: Antibacterial activity against methicillin-resistant Staphylococcus aureus 829034 clinical isolate after 20 to 24 hrs by two-fold microdilution method

Compound: O=C1c2cccnc2C(=O)c2c1c(C(=O)OCCCCCCN1CCCCC1)c1ccc(Br)cn21
- MIC (Staphylococcus aureus [1]): ≤ 7.8 ng/mL
- MIC (Staphylococcus aureus [2]): 0.063 µg/mL (≈ 0.117 µM)
- MIC [3]: 0.125 µg/mL (≈ 0.232 µM)
- MIC (Staphylococcus aureus [4]): 0.063 µg/mL (≈ 0.117 µM)
- MIC (Staphylococcus aureus [5]): ≤ 7.8 ng/mL
- MIC (Staphylococcus aureus [6]): 0.031 µg/mL (≈ 0.0576 µM)
- MIC (Staphylococcus aureus [7]): 0.25 µg/mL (≈ 0.464 µM)
- MIC (Staphylococcus aureus [8]): 0.031 µg/mL (≈ 0.0576 µM)
- MIC (Staphylococcus aureus [9]): 0.063 µg/mL (≈ 0.117 µM)
- MIC [10]: ≤ 7.8 ng/mL
- MIC (Staphylococcus aureus [11]): 0.125 µg/mL (≈ 0.232 µM)
- MIC (Staphylococcus aureus [12]): 0.063 µg/mL (≈ 0.117 µM)
- MIC (Staphylococcus aureus [13]): 0.063 µg/mL (≈ 0.117 µM)
- MIC (Staphylococcus aureus [14]): 0.125 µg/mL (≈ 0.232 µM)
- MIC (Staphylococcus aureus [15]): 0.125 µg/mL (≈ 0.232 µM)
- MIC (Staphylococcus aureus [16]): 0.063 µg/mL (≈ 0.117 µM)
- MIC (Staphylococcus aureus [17]): 0.063 µg/mL (≈ 0.117 µM)
- MIC (Staphylococcus aureus [18]): 0.031 µg/mL (≈ 0.0576 µM)
- MIC (Staphylococcus aureus [19]): 0.25 µg/mL (≈ 0.464 µM)
- MIC (Staphylococcus aureus [20]): 0.125 µg/mL (≈ 0.232 µM)
- MIC (Staphylococcus aureus [21]): 0.031 µg/mL (≈ 0.0576 µM)
- MIC (Staphylococcus aureus [22]): 0.063 µg/mL (≈ 0.117 µM)
- MIC (Staphylococcus aureus [23]): 0.063 µg/mL (≈ 0.117 µM)
- MIC (Staphylococcus aureus [24]): 0.063 µg/mL (≈ 0.117 µM)
- MIC (Staphylococcus aureus [25]): 0.063 µg/mL (≈ 0.117 µM)
- MIC (Staphylococcus aureus [26]): 0.125 µg/mL (≈ 0.232 µM)
- MIC (Staphylococcus aureus [27]): 16 µg/mL (≈ 29.7 µM)
- MIC (Staphylococcus aureus [28]): 0.016 µg/mL (≈ 0.0297 µM)
- MIC (Staphylococcus aureus [29]): 0.031 µg/mL (≈ 0.0576 µM)
- MIC (Staphylococcus aureus [30]): 0.063 µg/mL (≈ 0.117 µM)
- MIC (Staphylococcus aureus [31]): 0.063 µg/mL (≈ 0.117 µM)
- MIC (Staphylococcus aureus [32]): 0.063 µg/mL (≈ 0.117 µM)
- MIC (Staphylococcus aureus [33]): 0.063 µg/mL (≈ 0.117 µM)
- MIC (Staphylococcus aureus [34]): 0.063 µg/mL (≈ 0.117 µM)
- MIC (Staphylococcus aureus [35]): 0.063 µg/mL (≈ 0.117 µM)
- MIC (Staphylococcus aureus [36]): 0.25 µg/mL (≈ 0.464 µM)
- MIC (Staphylococcus aureus [37]): 0.063 µg/mL (≈ 0.117 µM)
- MIC (Staphylococcus aureus [38]): 0.063 µg/mL (≈ 0.117 µM)
- MIC (Staphylococcus aureus [39]): 0.031 µg/mL (≈ 0.0576 µM)
- MIC (Staphylococcus aureus [40]): 0.063 µg/mL (≈ 0.117 µM)
- MIC (Staphylococcus aureus [41]): 0.063 µg/mL (≈ 0.117 µM)
- MIC (Streptococcus pneumoniae): 0.5 µg/mL (≈ 0.929 µM)
- MIC (Staphylococcus aureus [42]): 0.063 µg/mL (≈ 0.117 µM)
- MIC (Staphylococcus aureus [43]): 0.063 µg/mL (≈ 0.117 µM)
- MIC (Staphylococcus aureus [44]): 0.063 µg/mL (≈ 0.117 µM)
- MIC (Staphylococcus aureus [45]): 0.125 µg/mL (≈ 0.232 µM)
- MIC (Staphylococcus aureus [46]): 0.25 µg/mL (≈ 0.464 µM)

Compound: O=C1c2cccnc2C(=O)c2c1c(C(=O)OCCCCCCN1CCOCC1)c1ccc(Br)cn21
- MIC (Staphylococcus aureus [1]): ≤ 7.8 ng/mL
- MIC (Staphylococcus aureus [2]): ≤ 0.0078 µg/mL
- MIC [3]: 0.031 µg/mL (≈ 0.0574 µM)
- MIC (Staphylococcus aureus [4]): ≤ 0.0078 µg/mL
- MIC (Staphylococcus aureus [5]): ≤ 7.8 ng/mL
- MIC (Staphylococcus aureus [6]): ≤ 0.0078 µg/mL
- MIC (Staphylococcus aureus [7]): ≤ 0.0078 µg/mL
- MIC (Staphylococcus aureus [8]): ≤ 0.0078 µg/mL
- MIC (Staphylococcus aureus [9]): ≤ 0.0078 µg/mL
- MIC [10]: ≤ 7.8 ng/mL
- MIC (Staphylococcus aureus [11]): ≤ 0.0078 µg/mL
- MIC (Staphylococcus aureus [12]): ≤ 0.0078 µg/mL
- MIC (Staphylococcus aureus [13]): ≤ 0.0078 µg/mL
- MIC (Staphylococcus aureus [14]): ≤ 0.0078 µg/mL
- MIC (Staphylococcus aureus [15]): ≤ 0.0078 µg/mL
- MIC (Staphylococcus aureus [16]): ≤ 0.0078 µg/mL
- MIC (Staphylococcus aureus [17]): ≤ 0.0078 µg/mL
- MIC (Staphylococcus aureus [18]): ≤ 0.0078 µg/mL
- MIC (Staphylococcus aureus [19]): ≤ 0.0078 µg/mL
- MIC (Staphylococcus aureus [20]): ≤ 0.0078 µg/mL
- MIC (Staphylococcus aureus [21]): ≤ 0.0078 µg/mL
- MIC (Staphylococcus aureus [22]): ≤ 0.0078 µg/mL
- MIC (Staphylococcus aureus [23]): ≤ 0.0078 µg/mL
- MIC (Staphylococcus aureus [24]): ≤ 0.0078 µg/mL
- MIC (Staphylococcus aureus [25]): ≤ 0.0078 µg/mL
- MIC (Staphylococcus aureus [26]): ≤ 0.0078 µg/mL
- MIC (Staphylococcus aureus [27]): ≤ 0.0078 µg/mL
- MIC (Staphylococcus aureus [28]): ≤ 0.0078 µg/mL
- MIC (Staphylococcus aureus [29]): ≤ 0.0078 µg/mL
- MIC (Staphylococcus aureus [30]): ≤ 0.0078 µg/mL
- MIC (Staphylococcus aureus [31]): ≤ 0.0078 µg/mL
- MIC (Staphylococcus aureus [32]): ≤ 0.0078 µg/mL
- MIC (Staphylococcus aureus [33]): ≤ 0.0078 µg/mL
- MIC (Staphylococcus aureus [34]): ≤ 0.0078 µg/mL
- MIC (Staphylococcus aureus [35]): ≤ 0.0078 µg/mL
- MIC (Staphylococcus aureus [36]): ≤ 0.0078 µg/mL
- MIC (Staphylococcus aureus [37]): ≤ 0.0078 µg/mL
- MIC (Staphylococcus aureus [38]): ≤ 0.0078 µg/mL
- MIC (Staphylococcus aureus [39]): ≤ 0.0078 µg/mL
- MIC (Staphylococcus aureus [40]): ≤ 0.0078 µg/mL
- MIC (Staphylococcus aureus [41]): ≤ 0.0078 µg/mL
- MIC (Streptococcus pneumoniae): 0.5 µg/mL (≈ 0.925 µM)
- MIC (Staphylococcus aureus [42]): ≤ 0.0078 µg/mL
- MIC (Staphylococcus aureus [43]): ≤ 0.0078 µg/mL
- MIC (Staphylococcus aureus [44]): ≤ 0.0078 µg/mL
- MIC (Staphylococcus aureus [45]): ≤ 0.0078 µg/mL
- MIC (Staphylococcus aureus [46]): ≤ 0.0078 µg/mL

— ChEMBL document CHEMBL4004803, “Syntheses and antibacterial activity of soluble 9-bromo substituted indolizinoquinoline-5,12-dione derivatives” (Eur J Med Chem, 2017)
